Laboratory results: patent publication US11596639B2, “Substituted indole Mcl-1 inhibitors” (Vanderbilt University, priority 2016, dated 2023)
Read-outs that look alike come from different tables or passages of the source.

Legend:
[1] = tested on: H929 human cancer cell lines; experiment: Cellular viability / proliferation (Cell TiterGlo, 72 h); type: cell-based
Summary of the method: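 Cells were seeded at 1,000 cells/well in medium with 10% FBS and dosed 24 h later with a 2-fold serial dilution of compound (top concentration 50 μM, final DMSO <1%).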

Mcl-1 = Mcl-1 (Homo sapiens (Human), UniProt Q07820); experiment: Fluorescence polarization anisotropy (FPA) competition assay, FITC-Bak or FITC-Bim BH3 peptide; type: binding; details: read-out: Ki for Inhibition of Mcl-1 by FPA assay
Sequence of Mcl-1 (Q07820 172-327): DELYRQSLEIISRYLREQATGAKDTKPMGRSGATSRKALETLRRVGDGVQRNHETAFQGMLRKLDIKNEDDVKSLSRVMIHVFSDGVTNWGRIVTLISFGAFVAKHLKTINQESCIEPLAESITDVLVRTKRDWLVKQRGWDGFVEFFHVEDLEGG

[2] = Homo sapiens, NCI-H929, 72 h, read-out: GI50 on cellular proliferation of H929 human cancer cell lines, H929 cells, 72 h, Cell TiterGlo, 10% FBS
[3] = read-out: GI50 on cellular proliferation of H929 human cancer cell lines, H929 cells, 72 h, Cell TiterGlo, 10% FBS

SMILES	GI50 [1, 2] [nM]	Ki (Mcl-1) [nM]	GI50 [1, 3] [nM]	GI50 ([1]; H929 cells, 72 h, Cell TiterGlo, 10% FBS, read-out: GI50 on cellular proliferation of H929 human cancer cell lines) [nM]
Cc1cc(OCCCc2c3n(c4c(-c5c(C)nn(C)c5C)c(Cl)ccc24)[C@H](C)CN(c2c[nH]c4ccc(-c5ncn(C)n5)cc24)C3=O)cc(C)c1Cl [Example 471, (R)-7-chloro-10-(3-(4-chloro-3,5-dimethylphenoxy)propyl)-4-methyl-2-(5-(1-methyl-1H-1,2,4-triazol-3-yl)-1H-indol-3-yl)-6-(1,3,5-trimethyl-1H-pyrazol-4-yl)-3,4-dihydropyrazino[1,2-a]indol-1(2H)-one]	360	2.3	–	–
Cc1cc(OCCCc2c3n(c4c(-c5c(C)nn(C)c5C)c(Cl)ccc24)[C@H](C)CN(c2cn(C)c4ccc(C(=O)Nc5cccnc5)cc24)C3=O)cc(C)c1Cl [Example 291, 3-[(4R)-7-chloro-10-[3-(4-chloro-3,5-dimethyl-phenoxy)propyl]-4-methyl-1-oxo-6-(1,3,5-trimethylpyrazol-4-yl)-3,4-dihydropyrazino[1,2-a]indol-2-yl]-1-methyl-N-(3-pyridyl)indole-5-carboxamide]	1000	1.1	–	–
Cc1cc(OCCCc2c3n(c4c(-c5c(C)n[nH]c5C)c(Cl)ccc24)[C@H](C)CN(c2cn(C)c4cc(C(=O)O)ccc24)C3=O)cc(C)c1Cl [Example 109, (R)-3-(7-chloro-10-(3-(4-chloro-3,5-dimethylphenoxy)propyl)-6-(3,5-dimethyl-1H-pyrazol-4-yl)-4-methyl-1-oxo-3,4-dihydropyrazino[1,2-a]indol-2(1H)-yl)-1-methyl-1H-indole-6-carboxylic acid]	710	< 1	–	–
Cc1cc(OCCCc2c3n(c4c(-c5c(C)n[nH]c5C)c(Cl)ccc24)[C@H](C)CN(c2cc(C(=O)O)c4ccn(C)c4c2)C3=O)cc(C)c1Cl [Example 70, (R)-6-(7-chloro-10-(3-(4-chloro-3,5-dimethylphenoxy)propyl)-6-(3,5-dimethyl-1H-pyrazol-4-yl)-4-methyl-1-oxo-3,4-dihydropyrazino[1,2-a]indol-2(1H)-yl)-1-methyl-1H-indole-4-carboxylic acid]	2400	< 1	–	–
Cc1cc(OCCCc2c3n(c4c(-c5c(C)nn(C)c5C)c(Cl)ccc24)[C@H](C)CN(c2cn(C)c4cc(C(N)=O)ccc24)C3=O)cc(C)c1Cl [Example 277, 3-[(4R)-7-chloro-10-[3-(4-chloro-3,5-dimethyl-phenoxy)propyl]-4-methyl-1-oxo-6-(1,3,5-trimethylpyrazol-4-yl)-3,4-dihydropyrazino[1,2-a]indol-2-yl]-1-methyl-indole-6-carboxamide]	1400	6.6	–	–
Cc1cc(OCCCc2c3n(c4c(-c5c(C)nn(C)c5C)c(Cl)ccc24)[C@H](C)CN(c2cccc4c2ccn4CC(=O)O)C3=O)cc(C)c1Cl [Example 134, (R)-2-(4-(7-Chloro-10-(3-(4-chloro-3,5-dimethylphenoxy)propyl)-4-methyl-1-oxo-6-(1,3,5-trimethyl-1H-pyrazol-4-yl)-3,4-dihydropyrazino[1,2-a]indol-2(1H)-yl)-1H-indol-1-yl)acetic acid]	11000	< 1	–	–
CC(=O)c1ccc2c(c1)c(N1C[C@@H](C)n3c(c(CCCOc4cc(C)c(Cl)c(C)c4)c4ccc(Cl)c(-c5c(C)nn(C)c5C)c43)C1=O)cn2C [Example 260, (R)-2-(5-Acetyl-1-methyl-1H-indol-3-yl)-7-chloro-10-(3-(4-chloro-3,5-dimethylphenoxy)propyl)-4-methyl-6-(1,3,5-trimethyl-1H-pyrazol-4-yl)-3,4-dihydropyrazino[1,2-a]indol-1(2H)-one]	550	< 1	–	–
COc1cccc(Cn2c(C(=O)O)cc3cccc(N4C[C@@H](C)n5c(c(CCCOc6cc(C)c(Cl)c(C)c6)c6ccc(Cl)c(-c7c(C)nn(C)c7C)c65)C4=O)c32)n1 [Example 360, (R)-7-(7-Chloro-10-(3-(4-chloro-3,5-dimethylphenoxy)propyl)-4-methyl-1-oxo-6-(1,3,5-trimethyl-1H-pyrazol-4-yl)-3,4-dihydropyrazino[1,2-a]indol-2(1H)-yl)-1-((6-methoxypyridin-2-yl)methyl)-1H-indole-2-carboxylic acid]	2500	2.5	–	–
Cc1cc(OCCCc2c3n(c4c(-c5c(C)nn(C)c5C)c(Cl)ccc24)[C@H](C)CN(c2coc4ccccc24)C3=O)cc(C)c1Cl (single isomer, unassigned) [Example 246]	–	8.6	5300	–
Cc1cc(OCCCc2c3n(c4c(-c5c(C)nn(C)c5C)c(Cl)ccc24)[C@H](C)CN(c2cn(C)c4ccc(-c5n[nH]c(=O)o5)cc24)C3=O)cc(C)c1Cl [Example 444, (R)-5-(3-(7-Chloro-10-(3-(4-chloro-3,5-dimethylphenoxy)propyl)-4-methyl-1-oxo-6-(1,3,5-trimethyl-1H-pyrazol-4-yl)-3,4-dihydropyrazino[1,2-a]indol-2(1H)-yl)-1-methyl-1H-indol-5-yl)-1,3,4-oxadiazol-2(3H)-one]	220	1.3	–	–
Cc1cc(OCCCc2c3n(c4c(-c5c(C)nn(C)c5C)c(Cl)ccc24)[C@H](C)CN(c2cccc4cc(C(N)=O)n(C)c24)C3=O)cc(C)c1Cl [Example 377, (R)-7-(7-chloro-10-(3-(4-chloro-3,5-dimethylphenoxy)propyl)-4-methyl-1-oxo-6-(1,3,5-trimethyl-1H-pyrazol-4-yl)-3,4-dihydropyrazino[1,2-a]indol-2(1H)-yl)-1-methyl-1H-indole-2-carboxamide]	–	4.9	630	–
COc1ccc(Cn2c(C(=O)O)cc3cccc(N4C[C@@H](C)n5c(c(CCCOc6cc(C)c(Cl)c(C)c6)c6ccc(Cl)c(-c7c(C)nn(C)c7C)c65)C4=O)c32)nc1 [Example 382, (R)-7-(7-Chloro-10-(3-(4-chloro-3,5-dimethylphenoxy)propyl)-4-methyl-1-oxo-6-(1,3,5-trimethyl-1H-pyrazol-4-yl)-3,4-dihydropyrazino[1,2-a]indol-2(1H)-yl)-1-((5-methoxypyridin-2-yl)methyl)-1H-indole-2-carboxylic acid]	750	1.2	–	–
Cc1cc(N2C[C@@H](C)n3c(c(CCCOc4cc(C)c(Cl)c(C)c4)c4ccc(Cl)c(-c5c(C)nn(C)c5C)c43)C2=O)c2c(c1)cc(C(=O)O)n2CC1CCOCC1 [Example 324, (R)-7-(7-Chloro-10-(3-(4-chloro-3,5-dimethylphenoxy)propyl)-4-methyl-1-oxo-6-(1,3,5-trimethyl-1H-pyrazol-4-yl)-3,4-dihydropyrazino[1,2-a]indol-2(1H)-yl)-5-methyl-1-((tetrahydro-2H-pyran-4-yl)methyl)-1H-indole-2-carboxylic acid]	610	< 1	–	–
Cc1cc(N2C[C@@H](C)n3c(c(CCCOc4cc(C)c(Cl)c(C)c4)c4ccc(Cl)c(-c5c(C)ncnc5C)c43)C2=O)c2c(c1)cc(C(=O)O)n2C [Example 272, 7-[(4R)-7-chloro-10-[3-(4-chloro-3,5-dimethyl-phenoxy)propyl]-6-(4,6-dimethylpyrimidin-5-yl)-4-methyl-1-oxo-3,4-dihydropyrazino[1,2-a]indol-2-yl]-1,5-dimethyl-indole-2-carboxylic acid]	210	< 1	–	–
COCCOc1cc(N2C[C@@H](C)n3c(c(CCCOc4cc(C)c(Cl)c(C)c4)c4ccc(Cl)c(-c5c(C)nn(C)c5C)c43)C2=O)c2cc(C(=O)O)n(C)c2c1 [Example 328, (M, R)-4-(7-Chloro-10-(3-(4-chloro-3,5-dimethylphenoxy)propyl)-4-methyl-1-oxo-6-(1,3,5-trimethyl-1H-pyrazol-4-yl)-3,4-dihydropyrazino[1,2-a]indol-2(1H)-yl)-6-(2-methoxyethoxy)-1-methyl-1H-indole-2-carboxylic acid]	–	< 1	–	690
Cc1cc(OCCCc2c3n(c4c(-c5c(C)nn(C)c5C)c(Cl)ccc24)[C@H](C)CN(c2cccc4cc(C(=O)O)n(Cc5ccccc5)c24)C3=O)cc(C)c1Cl [Example 241, 1-Benzyl-7-[(4R)-7-chloro-10-[3-(4-chloro-3,5-dimethyl-phenoxy)propyl]-4-methyl-1-oxo-6-(1,3,5-trimethylpyrazol-4-yl)-3,4-dihydropyrazino[1,2-a]indol-2-yl]indole-2-carboxylic acid]	420	< 1	–	–
Cc1cc(OCCCc2c3n(c4c(-c5c(C)nn(C)c5C)c(Cl)ccc24)CCCN(c2cn(CCN4CCOCC4)c4cc(C(=O)O)ccc24)C3=O)cc(C)c1Cl [Example 89, 3-(8-Chloro-11-(3-(4-chloro-3,5-dimethylphenoxy)propyl)-1-oxo-7-(1,3,5-trimethyl-1H-pyrazol-4-yl)-4,5-dihydro-1H-[1,4]diazepino[1,2-a]indol-2(3H)-yl)-1-(2-morpholinoethyl)-1H-indole-6-carboxylic acid]	1300	< 1	–	–
Cc1cc(OCCCc2c3n(c4c(-c5c(C)ncnc5C)c(Cl)ccc24)[C@H](C)CN(c2nn(C)c4cccc(C(=O)O)c24)C3=O)cc(C)c1Cl [Example 273, 3-[(4R)-7-chloro-10-[3-(4-chloro-3,5-dimethyl-phenoxy)propyl]-6-(4,6-dimethylpyrimidin-5-yl)-4-methyl-1-oxo-3,4-dihydropyrazino[1,2-a]indol-2-yl]-1-methyl-indazole-4-carboxylic acid]	4100	< 1	–	–
Cc1cc(OCCCc2c3n(c4c(-c5c(C)nn(C)c5C)c(Cl)ccc24)[C@H](C)CN(c2cn(C)c4ccc(C(=O)O)cc24)C3=O)ccc1Cl [Example 407, (R)-3-(7-Chloro-10-(3-(4-chloro-3-methylphenoxy)propyl)-4-methyl-1-oxo-6-(1,3,5-trimethyl-1H-pyrazol-4-yl)-3,4-dihydropyrazino[1,2-a]indol-2(1H)-yl)-1-methyl-1H-indole-5-carboxylic acid]	490	1.1	–	–
